Laboratory results reported in ChEMBL document CHEMBL1156881, “Inhibition of monoamine oxidase by 8-benzyloxycaffeine analogues” (Bioorg Med Chem, 2010).
Activity calls are given as the source filed them. The calls are words filed in the database; no cut-off is given here.

Assays:
[1] = Inhibition of MAOB in baboon liver mitochondria assessed as MMDP+ production by spectrophotometry; parameters: species or system Papio hamadryas
[2] = target: T1, Amine oxidase [flavin-containing] A (Homo sapiens, UniProt P21397); experiment: Inhibition of human recombinant MAOA assessed as 4-hydroxyquinoline formation by fluorimetry
T1 sequence (P21397 whole entry): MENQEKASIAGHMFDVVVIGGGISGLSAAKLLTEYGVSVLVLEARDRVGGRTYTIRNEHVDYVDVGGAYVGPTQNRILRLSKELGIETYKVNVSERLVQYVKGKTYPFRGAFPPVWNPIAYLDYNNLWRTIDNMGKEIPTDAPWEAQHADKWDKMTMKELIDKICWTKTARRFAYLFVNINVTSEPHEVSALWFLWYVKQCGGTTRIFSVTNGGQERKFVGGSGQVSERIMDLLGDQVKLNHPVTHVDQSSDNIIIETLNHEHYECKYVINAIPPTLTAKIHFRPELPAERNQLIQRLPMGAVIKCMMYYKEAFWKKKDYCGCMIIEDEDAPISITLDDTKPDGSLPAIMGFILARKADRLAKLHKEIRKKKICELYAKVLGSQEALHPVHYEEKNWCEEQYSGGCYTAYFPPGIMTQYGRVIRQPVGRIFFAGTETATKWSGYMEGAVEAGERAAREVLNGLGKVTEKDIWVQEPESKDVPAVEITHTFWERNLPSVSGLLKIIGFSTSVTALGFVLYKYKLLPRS

[3] = target: T2, Amine oxidase [flavin-containing] B (Homo sapiens, UniProt P27338); experiment: Inhibition of human recombinant MAOB assessed as 4-hydroxyquinoline formation by fluorimetry
T2 sequence (P27338 whole entry): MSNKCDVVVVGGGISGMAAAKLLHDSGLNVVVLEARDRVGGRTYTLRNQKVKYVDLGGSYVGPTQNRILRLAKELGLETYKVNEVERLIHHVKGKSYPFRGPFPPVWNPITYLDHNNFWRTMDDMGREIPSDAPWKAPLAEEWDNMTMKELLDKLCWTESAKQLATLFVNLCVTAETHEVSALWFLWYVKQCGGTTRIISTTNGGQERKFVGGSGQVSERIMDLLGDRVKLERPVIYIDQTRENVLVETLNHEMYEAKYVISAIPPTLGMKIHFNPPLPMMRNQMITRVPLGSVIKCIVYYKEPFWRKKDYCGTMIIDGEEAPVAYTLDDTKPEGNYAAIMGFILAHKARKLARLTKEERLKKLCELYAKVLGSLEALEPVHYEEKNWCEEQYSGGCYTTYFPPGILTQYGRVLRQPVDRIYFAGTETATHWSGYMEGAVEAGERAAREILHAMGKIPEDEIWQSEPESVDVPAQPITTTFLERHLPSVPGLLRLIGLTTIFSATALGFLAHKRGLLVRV

Homo sapiens = organism: Homo sapiens; experiment: Selectivity for human recombinant MAOA over human recombinant MAOB
[4] = target: T2, Amine oxidase [flavin-containing] B; experiment: Competitive inhibition of human recombinant MAOB by Lineweaver-Burke plot
Papio hamadryas [5] = organism: Papio hamadryas; experiment: Competitive inhibition of MAOB in baboon liver mitochondria by Lineweaver-Burke plot
[6] = target: T1, Amine oxidase [flavin-containing] A; experiment: Reversible inhibition of human recombinant MAOA assessed as 4-hydroxyquinoline formation by fluorimetry
[7] = target: T1, Amine oxidase [flavin-containing] A; experiment: Competitive inhibition of human recombinant MAOA by Lineweaver-Burke plot
Papio hamadryas [8] = organism: Papio hamadryas; experiment: Reversible inhibition of MAOB in baboon liver mitochondria at 0.28 uM assessed as MMDP+ production by spectrophotometry
[9] = target: T2, Amine oxidase [flavin-containing] B; experiment: Reversible inhibition of human recombinant MAOB at 0.23 uM assessed as 4-hydroxyquinoline formation by fluorimetry
[10] = target: T1, Amine oxidase [flavin-containing] A; experiment: Reversible inhibition of human recombinant MAOA at 1.31 uM assessed as 4-hydroxyquinoline formation by fluorimetry

Row | Structure (SMILES) | IC50 [1] [nM] | Ki [1] [nM] | IC50 [2] [nM] | Ki [2] [nM] | IC50 [3] [nM] | Ki [3] [nM] | Ratio Ki (Homo sapiens) | inhibition (INH) [4] | inhibition (Papio hamadryas [5]) | inhibition (INH) [6] | inhibition (INH) [7] | inhibition (Papio hamadryas [8]) | inhibition (INH) [9] | inhibition (INH) [10]
1 | Cn1c(=O)c2c(nc(OCc3ccccc3)n2C)n(C)c1=O | 2490 | 1440 | 1770 | 590 | 1240 | 430 | 1.37 |  |  |  |  |  |  | 
2 | Cn1c(=O)c2c(nc(OCc3cccc(C(F)(F)F)c3)n2C)n(C)c1=O | 112 | 65 | 152 | 51 | 3720 | 1300 | 0.039 | Active | Active | Active | Active |  |  | 
3 | Cn1c(=O)c2c(nc(OCc3cccc(F)c3)n2C)n(C)c1=O | 534 | 310 | 542 | 180 | 1070 | 370 | 0.49 |  |  |  |  |  |  | 
4 | Cc1cccc(COc2nc3c(c(=O)n(C)c(=O)n3C)n2C)c1 | 698 | 400 | 546 | 180 | 397 | 140 | 1.29 |  |  |  |  |  |  | 
5 | Cn1c(=O)c2c(nc(OCc3cccc(Br)c3)n2C)n(C)c1=O | 113 | 65 | 68 | 23 | 941 | 330 | 0.069 |  |  |  |  |  |  | 
6 | COc1cccc(COc2nc3c(c(=O)n(C)c(=O)n3C)n2C)c1 | 1590 | 920 | 1010 | 340 | 3150 | 1100 | 0.31 |  |  |  |  |  |  | 
7 | Cn1c(=O)c2c(nc(OCc3cccc(Cl)c3)n2C)n(C)c1=O | 120 | 69 | 107 | 36 | 666 | 230 | 0.16 |  |  |  |  | Active | Active | Active
